Reference: ChEMBL document CHEMBL5291721, “A preclinical secondary pharmacology resource illuminates target-adverse drug reaction associations of marketed drugs” (Nat Commun, 2023)

Key:
Adenosine receptor A1 = molecular target: T1, Adenosine receptor A1 (Homo sapiens, UniProt P30542)
T1 sequence (P30542 whole entry): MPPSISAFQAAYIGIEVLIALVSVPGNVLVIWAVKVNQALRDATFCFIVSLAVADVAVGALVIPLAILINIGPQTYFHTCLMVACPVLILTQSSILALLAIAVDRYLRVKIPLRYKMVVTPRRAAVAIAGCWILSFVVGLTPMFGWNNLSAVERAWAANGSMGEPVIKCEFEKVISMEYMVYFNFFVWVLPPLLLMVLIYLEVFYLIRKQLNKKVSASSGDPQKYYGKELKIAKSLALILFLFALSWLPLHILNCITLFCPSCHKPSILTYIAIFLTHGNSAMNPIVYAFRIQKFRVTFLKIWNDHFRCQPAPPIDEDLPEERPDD

[1] = molecular target: T2, Alpha-2A adrenergic receptor (Homo sapiens, UniProt P08913); format: functional, cell-based
T2 sequence (P08913 whole entry): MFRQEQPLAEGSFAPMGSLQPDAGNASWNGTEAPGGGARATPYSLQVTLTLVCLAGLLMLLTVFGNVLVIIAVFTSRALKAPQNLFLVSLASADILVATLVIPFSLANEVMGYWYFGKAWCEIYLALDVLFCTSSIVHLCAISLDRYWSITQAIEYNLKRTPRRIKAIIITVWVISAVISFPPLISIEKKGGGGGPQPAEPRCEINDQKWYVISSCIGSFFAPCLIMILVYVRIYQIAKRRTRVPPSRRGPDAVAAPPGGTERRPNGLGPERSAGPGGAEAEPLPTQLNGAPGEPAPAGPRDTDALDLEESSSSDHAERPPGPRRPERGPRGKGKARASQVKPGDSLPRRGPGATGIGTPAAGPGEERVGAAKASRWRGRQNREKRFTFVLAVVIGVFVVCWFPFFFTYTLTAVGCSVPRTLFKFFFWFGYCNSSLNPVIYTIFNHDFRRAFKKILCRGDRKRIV

Cannabinoid receptor 1 = Cannabinoid receptor 1 (Homo sapiens, UniProt P21554); format: functional, cell-based
Chain of Cannabinoid receptor 1 (P21554 whole entry): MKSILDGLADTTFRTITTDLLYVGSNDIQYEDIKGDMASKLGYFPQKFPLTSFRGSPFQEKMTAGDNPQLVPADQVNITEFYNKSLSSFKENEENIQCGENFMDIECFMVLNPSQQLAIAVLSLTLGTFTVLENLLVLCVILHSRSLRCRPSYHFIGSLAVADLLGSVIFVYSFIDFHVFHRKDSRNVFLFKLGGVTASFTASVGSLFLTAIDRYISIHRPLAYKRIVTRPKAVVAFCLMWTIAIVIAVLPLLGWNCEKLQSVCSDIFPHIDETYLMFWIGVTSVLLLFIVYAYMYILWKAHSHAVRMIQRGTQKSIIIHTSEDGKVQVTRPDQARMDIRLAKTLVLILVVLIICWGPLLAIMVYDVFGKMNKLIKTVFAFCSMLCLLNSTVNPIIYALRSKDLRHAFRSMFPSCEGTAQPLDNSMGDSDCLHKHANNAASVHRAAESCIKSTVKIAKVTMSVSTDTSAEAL

[2] = molecular target: Glutamate receptor ionotropic, NMDA 1 (Rattus norvegicus, UniProt P35439)
[3] = molecular target: T3, 5-hydroxytryptamine receptor 3A (Homo sapiens, UniProt P46098); format: functional
T3 sequence (P46098 whole entry): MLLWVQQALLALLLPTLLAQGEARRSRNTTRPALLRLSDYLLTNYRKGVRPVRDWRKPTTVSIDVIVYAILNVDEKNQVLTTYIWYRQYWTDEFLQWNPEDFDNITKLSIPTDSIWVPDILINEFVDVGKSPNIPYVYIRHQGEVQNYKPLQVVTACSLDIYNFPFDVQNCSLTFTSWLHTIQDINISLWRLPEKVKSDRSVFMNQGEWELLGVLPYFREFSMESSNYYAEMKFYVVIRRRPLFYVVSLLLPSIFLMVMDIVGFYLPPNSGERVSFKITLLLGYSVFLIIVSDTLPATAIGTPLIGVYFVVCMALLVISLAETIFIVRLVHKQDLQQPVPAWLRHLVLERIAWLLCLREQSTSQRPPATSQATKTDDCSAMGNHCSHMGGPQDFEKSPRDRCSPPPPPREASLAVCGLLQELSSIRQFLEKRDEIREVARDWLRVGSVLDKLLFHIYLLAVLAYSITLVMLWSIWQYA

[4] = molecular target: Voltage-gated inwardly rectifying potassium channel KCNH2 (Homo sapiens, UniProt Q12809); format: functional; settings: read-out: AC50
Chain of Voltage-gated inwardly rectifying potassium channel KCNH2 (Q12809 whole entry): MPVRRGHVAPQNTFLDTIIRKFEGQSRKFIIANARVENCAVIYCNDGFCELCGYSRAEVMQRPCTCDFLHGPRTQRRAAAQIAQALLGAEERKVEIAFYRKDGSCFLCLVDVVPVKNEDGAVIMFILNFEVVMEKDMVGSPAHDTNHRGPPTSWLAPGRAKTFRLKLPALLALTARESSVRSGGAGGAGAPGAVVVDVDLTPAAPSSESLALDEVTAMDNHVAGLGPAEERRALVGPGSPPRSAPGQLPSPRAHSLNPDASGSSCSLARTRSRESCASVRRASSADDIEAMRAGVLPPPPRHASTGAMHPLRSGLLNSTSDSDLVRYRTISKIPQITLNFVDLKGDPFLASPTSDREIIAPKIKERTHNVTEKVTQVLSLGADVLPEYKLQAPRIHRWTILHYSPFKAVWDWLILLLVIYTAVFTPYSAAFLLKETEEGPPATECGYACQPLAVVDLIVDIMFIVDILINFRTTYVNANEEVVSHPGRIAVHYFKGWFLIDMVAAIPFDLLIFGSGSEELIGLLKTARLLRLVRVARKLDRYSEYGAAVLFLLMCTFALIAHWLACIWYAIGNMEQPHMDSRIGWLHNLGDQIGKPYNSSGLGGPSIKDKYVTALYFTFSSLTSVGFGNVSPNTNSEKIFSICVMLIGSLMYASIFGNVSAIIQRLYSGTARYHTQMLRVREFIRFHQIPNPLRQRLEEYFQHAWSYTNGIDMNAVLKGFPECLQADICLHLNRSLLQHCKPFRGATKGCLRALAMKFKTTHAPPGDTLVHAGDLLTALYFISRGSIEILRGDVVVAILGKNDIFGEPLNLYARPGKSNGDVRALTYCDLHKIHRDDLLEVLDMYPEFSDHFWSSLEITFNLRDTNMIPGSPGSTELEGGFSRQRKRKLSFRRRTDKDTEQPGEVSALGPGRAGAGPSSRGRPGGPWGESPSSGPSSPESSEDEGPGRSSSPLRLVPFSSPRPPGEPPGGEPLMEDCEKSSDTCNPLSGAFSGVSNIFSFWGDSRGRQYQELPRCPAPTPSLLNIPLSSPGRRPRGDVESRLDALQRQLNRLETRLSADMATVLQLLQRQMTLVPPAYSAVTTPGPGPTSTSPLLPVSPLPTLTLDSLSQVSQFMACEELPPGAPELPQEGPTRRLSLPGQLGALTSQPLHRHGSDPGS

Motilin receptor = Motilin receptor (Homo sapiens, UniProt O43193)
Chain of Motilin receptor (O43193 whole entry): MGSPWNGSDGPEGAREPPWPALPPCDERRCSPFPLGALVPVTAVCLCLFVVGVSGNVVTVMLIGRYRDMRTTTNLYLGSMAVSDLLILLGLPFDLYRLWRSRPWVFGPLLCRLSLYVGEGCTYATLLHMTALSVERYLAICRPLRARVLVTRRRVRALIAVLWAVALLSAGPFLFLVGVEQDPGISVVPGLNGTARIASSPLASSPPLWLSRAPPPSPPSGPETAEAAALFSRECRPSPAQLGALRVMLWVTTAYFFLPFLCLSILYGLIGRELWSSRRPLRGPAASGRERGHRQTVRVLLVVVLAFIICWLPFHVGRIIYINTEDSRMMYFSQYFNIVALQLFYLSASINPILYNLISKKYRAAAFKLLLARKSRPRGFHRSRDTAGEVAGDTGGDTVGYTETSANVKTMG

Thromboxane A2 receptor = molecular target: T4, Thromboxane A2 receptor (Homo sapiens, UniProt P21731)
T4 sequence (P21731 whole entry): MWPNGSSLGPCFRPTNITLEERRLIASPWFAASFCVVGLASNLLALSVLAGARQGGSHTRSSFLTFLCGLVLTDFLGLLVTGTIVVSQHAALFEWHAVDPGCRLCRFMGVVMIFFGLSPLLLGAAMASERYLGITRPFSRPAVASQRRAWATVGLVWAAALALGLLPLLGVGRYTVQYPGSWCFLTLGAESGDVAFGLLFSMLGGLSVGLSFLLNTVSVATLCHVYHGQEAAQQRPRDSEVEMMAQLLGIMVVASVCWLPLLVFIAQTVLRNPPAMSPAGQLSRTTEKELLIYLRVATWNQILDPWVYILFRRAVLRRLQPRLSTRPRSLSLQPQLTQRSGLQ

[5] = molecular target: Sodium-dependent noradrenaline transporter (Homo sapiens, UniProt P23975)
Chain of Sodium-dependent noradrenaline transporter (P23975 whole entry): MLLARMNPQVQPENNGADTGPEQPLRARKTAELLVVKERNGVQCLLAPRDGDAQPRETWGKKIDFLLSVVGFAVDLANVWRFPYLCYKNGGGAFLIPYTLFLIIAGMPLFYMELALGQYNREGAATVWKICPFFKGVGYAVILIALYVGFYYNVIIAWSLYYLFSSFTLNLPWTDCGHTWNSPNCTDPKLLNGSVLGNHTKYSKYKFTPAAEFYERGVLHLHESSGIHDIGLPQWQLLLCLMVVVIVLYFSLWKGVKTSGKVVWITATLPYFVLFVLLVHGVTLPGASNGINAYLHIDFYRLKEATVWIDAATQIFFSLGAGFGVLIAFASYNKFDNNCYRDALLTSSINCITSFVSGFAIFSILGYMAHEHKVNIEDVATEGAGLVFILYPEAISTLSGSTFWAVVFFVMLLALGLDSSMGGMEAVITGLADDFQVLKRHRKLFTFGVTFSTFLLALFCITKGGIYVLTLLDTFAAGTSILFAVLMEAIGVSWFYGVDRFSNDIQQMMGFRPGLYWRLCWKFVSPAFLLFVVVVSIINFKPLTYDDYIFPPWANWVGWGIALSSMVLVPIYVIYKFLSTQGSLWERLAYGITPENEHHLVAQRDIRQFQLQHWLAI

[6] = molecular target: cGMP-inhibited 3',5'-cyclic phosphodiesterase 3A (Homo sapiens, UniProt Q14432); format: functional
Chain of cGMP-inhibited 3',5'-cyclic phosphodiesterase 3A (Q14432 whole entry): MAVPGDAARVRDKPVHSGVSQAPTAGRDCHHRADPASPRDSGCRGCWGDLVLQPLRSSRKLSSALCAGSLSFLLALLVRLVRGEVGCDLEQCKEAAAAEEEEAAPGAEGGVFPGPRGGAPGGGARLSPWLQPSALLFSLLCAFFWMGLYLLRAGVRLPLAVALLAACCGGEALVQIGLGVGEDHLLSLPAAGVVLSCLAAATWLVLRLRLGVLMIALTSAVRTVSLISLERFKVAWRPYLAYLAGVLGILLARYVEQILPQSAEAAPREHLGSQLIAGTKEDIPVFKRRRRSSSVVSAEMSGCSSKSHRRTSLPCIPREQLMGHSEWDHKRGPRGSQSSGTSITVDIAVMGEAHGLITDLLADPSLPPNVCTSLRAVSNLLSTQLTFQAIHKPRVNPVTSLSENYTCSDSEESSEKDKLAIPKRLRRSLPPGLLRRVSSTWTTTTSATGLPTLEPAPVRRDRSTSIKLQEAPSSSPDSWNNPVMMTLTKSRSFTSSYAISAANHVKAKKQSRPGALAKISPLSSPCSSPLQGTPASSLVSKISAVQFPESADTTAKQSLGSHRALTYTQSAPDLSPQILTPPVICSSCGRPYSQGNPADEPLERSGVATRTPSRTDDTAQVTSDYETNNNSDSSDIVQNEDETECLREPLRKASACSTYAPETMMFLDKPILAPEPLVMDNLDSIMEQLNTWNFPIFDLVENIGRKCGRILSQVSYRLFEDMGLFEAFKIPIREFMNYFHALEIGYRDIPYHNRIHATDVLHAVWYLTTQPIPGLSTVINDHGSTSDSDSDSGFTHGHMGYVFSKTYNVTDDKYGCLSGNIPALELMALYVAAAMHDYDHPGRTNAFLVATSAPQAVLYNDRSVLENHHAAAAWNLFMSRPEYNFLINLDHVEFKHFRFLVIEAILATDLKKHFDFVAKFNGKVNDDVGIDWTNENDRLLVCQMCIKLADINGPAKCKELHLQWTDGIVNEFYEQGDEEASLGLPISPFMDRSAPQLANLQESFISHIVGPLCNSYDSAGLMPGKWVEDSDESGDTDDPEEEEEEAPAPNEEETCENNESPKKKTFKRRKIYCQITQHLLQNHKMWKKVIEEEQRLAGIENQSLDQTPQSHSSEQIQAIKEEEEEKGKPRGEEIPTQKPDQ

[7] = molecular target: T5, Alpha-1A adrenergic receptor (Homo sapiens, UniProt P35348); format: functional, cell-based
T5 sequence (P35348 whole entry): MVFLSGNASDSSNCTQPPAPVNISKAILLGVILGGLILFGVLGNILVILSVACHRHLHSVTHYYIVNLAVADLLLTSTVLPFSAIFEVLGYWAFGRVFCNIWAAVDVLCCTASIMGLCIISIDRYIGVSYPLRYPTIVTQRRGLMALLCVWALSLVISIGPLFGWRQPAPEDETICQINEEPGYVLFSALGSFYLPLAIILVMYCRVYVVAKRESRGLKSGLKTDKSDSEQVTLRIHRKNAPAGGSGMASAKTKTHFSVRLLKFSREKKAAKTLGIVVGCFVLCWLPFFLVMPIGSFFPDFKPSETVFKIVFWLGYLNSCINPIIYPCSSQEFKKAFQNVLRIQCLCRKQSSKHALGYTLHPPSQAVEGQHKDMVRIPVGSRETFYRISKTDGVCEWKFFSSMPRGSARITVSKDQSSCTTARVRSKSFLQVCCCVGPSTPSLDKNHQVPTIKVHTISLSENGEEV
Further: assay procedure not described here.

SMILES | AC50 (Adenosine receptor A1) [µM] | AC50 [1] [µM] | AC50 (Cannabinoid receptor 1) [µM] | AC50 [2] [µM] | AC50 [3] [µM] | AC50 [4] [µM] | AC50 (Motilin receptor) [µM] | AC50 (Thromboxane A2 receptor) [µM] | AC50 [5] [µM] | AC50 [6] [µM] | AC50 [7] [µM]
CC(=O)OCC(=O)[C@@]1(O)CC[C@H]2[C@@H]3CCC4=CC(=O)CC[C@]4(C)[C@@]3(F)[C@@H](O)C[C@@]21C [FLUDROCORTISONE ACETATE] | > 30 | > 30 | > 30 | > 30 | > 30 | > 30 | > 30 | > 30 | > 30 | > 30 | > 30
N=C(N)NC(=O)Cc1c(Cl)cccc1Cl [GUANFACINE] | > 30 | – | > 30 | > 30 | > 30 | > 30 | > 10 | > 30 | > 30 | > 30 | –
CCN(CC)CC(=O)Nc1c(C)cccc1C [LIDOCAINE] | > 30 | – | – | – | – | – | > 10 | > 30 | – | > 10 | –
CC(=O)N1CCN(c2ccc(OCC3COC(Cn4ccnc4)(c4ccc(Cl)cc4Cl)O3)cc2)CC1 (stereo not given) [KETOCONAZOLE] | > 30 | > 10 | > 30 | > 10 | > 30 | – | > 10 | > 10 | > 30 | > 30 | –
CN1CCC(=C2c3ccccc3CC(=O)c3sccc32)CC1 [KETOTIFEN] | > 10 | > 10 | > 30 | > 10 | – | 1.5 | > 10 | > 10 | > 10 | > 30 | 15
CC(=O)[C@@]1(O)CC[C@H]2[C@@H]3C[C@H](C)C4=CC(=O)C=C[C@]4(C)[C@@]3(F)[C@@H](O)C[C@@]21C [FLUOROMETHOLONE] | > 10 | > 10 | > 30 | > 10 | > 30 | > 30 | > 10 | > 10 | > 10 | > 30 | > 30
CNCCc1ccccn1 [BETAHISTINE] | > 30 | > 30 | > 30 | > 30 | > 30 | > 30 | > 30 | > 30 | > 30 | > 30 | > 30
CC1CC(OC(=O)C(O)c2ccccc2)CC(C)(C)C1 (stereo not given) [CYCLANDELATE] | > 10 | > 10 | – | > 10 | > 30 | > 30 | > 10 | > 10 | > 30 | > 30 | –
O=C1CN=C(c2ccccc2Cl)c2cc([N+](=O)[O-])ccc2N1 [CLONAZEPAM] | > 30 | > 10 | > 30 | > 10 | > 30 | > 30 | > 10 | > 30 | > 10 | > 30 | > 30
CN(Cc1ccc(C(C)(C)C)cc1)Cc1cccc2ccccc12 [BUTENAFINE] | > 10 | > 10 | – | > 10 | > 30 | 2.8 | > 10 | > 10 | > 10 | > 30 | –
COc1nc(C)nc(Cl)c1N=C1NCCN1 [MOXONIDINE] | > 30 | – | > 30 | > 30 | > 30 | > 30 | > 30 | > 30 | – | > 30 | –
CC(C)(C)NCC(O)COc1cccc2c1CC(O)C(O)C2 (stereo not given) [NADOLOL] | > 10 | > 10 | > 30 | > 10 | > 30 | > 30 | > 10 | > 10 | > 10 | > 30 | 7.7
OCCN(CCO)c1nc(N2CCCCC2)c2nc(N(CCO)CCO)nc(N3CCCCC3)c2n1 [DIPYRIDAMOLE] | > 30 | > 30 | – | > 30 | > 30 | > 30 | – | > 30 | > 30 | > 30 | > 30
CCc1ccc(C(=O)C(C)CN2CCCCC2)cc1 (stereo not given) [EPERISONE] | > 30 | > 30 | – | > 30 | > 30 | 1.57 | > 30 | > 30 | > 30 | > 30 | > 30
CCC1(C)CC(=O)NC1=O (stereo not given) [ETHOSUXIMIDE] | > 10 | > 10 | – | > 10 | > 30 | > 30 | > 10 | > 10 | > 10 | > 30 | –
Cc1cccc(Nc2ccncc2S(=O)(=O)NC(=O)NC(C)C)c1 [TORSEMIDE] | > 30 | > 10 | – | > 10 | > 30 | > 30 | > 30 | 20.8 | > 10 | > 30 | –
CN1C2CCCC1CC(NC(=O)c1nn(C)c3ccccc13)C2 (stereo not given) [GRANISETRON] | > 30 | > 10 | > 30 | > 10 | – | – | > 10 | > 30 | > 10 | > 10 | > 30
Nc1cc(N2CCCCC2)nc(N)[n+]1[O-] [MINOXIDIL] | > 30 | > 10 | – | > 10 | > 30 | – | > 10 | > 30 | > 30 | > 30 | > 30
CC(NC(C)(C)C)C(=O)c1cccc(Cl)c1 (stereo not given) [BUPROPION] | > 30 | > 10 | > 30 | > 10 | > 10 | – | > 10 | > 30 | – | – | > 30
Nc1ccc(S(=O)(=O)Nc2ncccn2)cc1 [SULFADIAZINE] | > 10 | > 10 | – | > 10 | > 30 | > 30 | > 10 | > 10 | > 10 | > 30 | –
